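Grown in 96-well plates, cells were treated for 48 hours with each compound at five concentrations. Insufficient inhibition: endpoint recorded as highest concentration tested. Abbreviation: GI50, concentration required for 50% inhibition of growth.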 Activity calls are given as the source filed them. No stated cut-off is given here; in the data, active = GI50 up to about 1.1 µM and inactive = higher.
Key:
Assay in all cases: inhibition of tumour cell growth, NCI panel, 48 h
[1] = system: A549
[2] = system: CAKI-1
[3] = system: NCI/ADR-RES
[4] = system: BT-549
[5] = system: OVCAR-8
[6] = system: HOP-62
[7] = system: SW-620
[8] = system: IGROV-1
[9] = system: DU-145
[10] = system: Malme-3M
[11] = system: HL-60
[12] = system: SK-MEL-28
[13] = system: COLO 205
[14] = system: CCRF-CEM
[15] = system: ACHN
[16] = system: M14
[17] = system: RPMI-8226
[18] = system: NCI-H522
[19] = system: OVCAR-5
[20] = system: SK-MEL-5
[21] = system: NCI-H460
[22] = system: MOLT-4
[23] = system: TK-10
[24] = system: RXF 393
[25] = system: LOX IMVI
[26] = system: HCT-15
[27] = system: SNB-75
[28] = system: OVCAR-4
[29] = system: SK-OV-3
[30] = system: Hs-578T
[31] = system: HCC 2998
[32] = system: EKVX
[33] = system: MDA-MB-231
[34] = system: NCI-H23
[35] = system: SF-295
[36] = system: UO-31
[37] = system: SR
[38] = system: SF-539
[39] = system: HCT-116
[40] = system: MCF7
[41] = system: K562
[42] = system: A498
[43] = system: HOP-92
[44] = system: SK-MEL-2
[45] = system: SNB-19
[46] = system: SF-268
[47] = system: OVCAR-3
[48] = system: NCI-H226
[49] = system: U-251
[50] = system: PC-3
[51] = system: UACC-62
[52] = system: MDA-MB-435
[53] = system: KM12
[54] = system: T47D
[55] = system: 786-0

## Cc1cn(S(=O)(=O)c2ccccc2)c2c(OCc3ccccc3)cc(NC(=O)c3cc4cc([N+](=O)[O-])ccc4s3)cc12
[1]
  GI50: > 100 µM (inactive)
[2]
  GI50: > 100 µM (inactive)
[3]
  GI50: > 100 µM (inactive)
[4]
  GI50: > 100 µM (inactive)
[5]
  GI50: > 100 µM (inactive)
[6]
  GI50: > 100 µM (inactive)
[7]
  GI50: > 100 µM (inactive)
[8]
  GI50: > 100 µM (inactive)
[9]
  GI50: > 100 µM (inactive)
[10]
  GI50: 89.7 µM (inactive)
[11]
  GI50: 91 µM (inactive)
[12]
  GI50: > 100 µM (inactive)
[13]
  GI50: > 100 µM (inactive)
[14]
  GI50: 38.9 µM (inactive)
[15]
  GI50: > 100 µM (inactive)
[16]
  GI50: 37.8 µM (inactive)
[17]
  GI50: > 100 µM (inactive)
[18]
  GI50: > 100 µM (inactive)
[19]
  GI50: > 100 µM (inactive)
[20]
  GI50: > 100 µM (inactive)
[21]
  GI50: > 100 µM (inactive)
[22]
  GI50: 59.6 µM (inactive)
[23]
  GI50: > 100 µM (inactive)
[24]
  GI50: > 100 µM (inactive)
[25]
  GI50: > 100 µM (inactive)
[26]
  GI50: > 100 µM
[27]
  GI50: 68.9 µM (inactive)
[28]
  GI50: > 100 µM (inactive)
[29]
  GI50: > 100 µM (inactive)
[30]
  GI50: > 100 µM (inactive)
[31]
  GI50: > 100 µM (inactive)
[32]
  GI50: > 100 µM (inactive)
[33]
  GI50: 49.1 µM (inactive)
[34]
  GI50: > 100 µM (inactive)
[35]
  GI50: 58.7 µM (inactive)
[36]
  GI50: > 100 µM (inactive)

## COc1ccc(-c2cc(-c3ccc(Nc4ccnc5cc(Cl)ccc45)cc3)nc(N)c2C#N)cc1
[1]
  GI50: > 100 µM (inactive)
[2]
  GI50: > 100 µM (inactive)
[3]
  GI50: > 100 µM (inactive)
[4]
  GI50: > 100 µM (inactive)
[37]
  GI50: > 100 µM (inactive)
[38]
  GI50: > 100 µM (inactive)
[39]
  GI50: > 100 µM (inactive)
[40]
  GI50: > 100 µM (inactive)
[5]
  GI50: > 100 µM (inactive)
[6]
  GI50: > 100 µM (inactive)
[7]
  GI50: > 100 µM (inactive)
[41]
  GI50: > 100 µM (inactive)
[8]
  GI50: > 100 µM (inactive)
[9]
  GI50: > 100 µM (inactive)
[10]
  GI50: > 100 µM (inactive)
[11]
  GI50: > 100 µM (inactive)
[12]
  GI50: > 100 µM (inactive)
[13]
  GI50: > 100 µM (inactive)
[42]
  GI50: > 100 µM (inactive)
[43]
  GI50: > 100 µM (inactive)
[15]
  GI50: > 100 µM (inactive)
[16]
  GI50: > 100 µM (inactive)
[44]
  GI50: > 100 µM (inactive)
[17]
  GI50: > 100 µM (inactive)
[18]
  GI50: > 100 µM (inactive)
[19]
  GI50: > 100 µM (inactive)
[21]
  GI50: > 100 µM (inactive)
[22]
  GI50: > 100 µM (inactive)
[23]
  GI50: > 100 µM (inactive)
[24]
  GI50: > 100 µM (inactive)
[25]
  GI50: > 100 µM (inactive)
[45]
  GI50: > 100 µM (inactive)
[46]
  GI50: > 100 µM (inactive)
[26]
  GI50: > 100 µM
[27]
  GI50: > 100 µM (inactive)
[47]
  GI50: > 100 µM (inactive)
[28]
  GI50: > 100 µM (inactive)
[29]
  GI50: > 100 µM (inactive)
[48]
  GI50: > 100 µM (inactive)
[49]
  GI50: > 100 µM (inactive)
[50]
  GI50: > 100 µM (inactive)
[31]
  GI50: > 100 µM (inactive)
[51]
  GI50: > 100 µM (inactive)
[32]
  GI50: > 100 µM (inactive)
[52]
  GI50: > 100 µM (inactive)
[33]
  GI50: > 100 µM (inactive)
[34]
  GI50: > 100 µM (inactive)
[53]
  GI50: > 100 µM (inactive)
[54]
  GI50: > 100 µM (inactive)
[35]
  GI50: > 100 µM (inactive)
[55]
  GI50: > 100 µM (inactive)
[36]
  GI50: 27.4 µM (inactive)

— ChEMBL document CHEMBL1201862, “PubChem BioAssay data set” (2004)
